# Values of other authors in US7615533B2, “TPO peptide compounds for treatment of anemia” (Janssen Pharmaceutica N.V., priority 2004, dated 2009).
# Tested on: rhesus monkeys exposed to 5 Gy total body irradiation
# Conditions: 5 Gy total body irradiation (300-kV x-rays); cited from earlier work
substance,measurement,value
"human recombinant TPO: human recombinant thrombopoietin, glycoprotein; comparator in the reporter assay and cited in the background",reticulocyte regeneration initiated earlier than in placebo-treated animals,10 days
